Data published in ChEMBL document CHEMBL1201862, “PubChem BioAssay data set” (2004).
Calls of active or inactive are those of the source.

How the values were obtained:
[1] = NIH-3T3 fibroblast cytotoxicity, dose response, cytotoxicity control, cell-based, fluorescence, Alamar Blue, secondary assay (AID 2327); type: functional;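 note: NIH-3T3 mouse fibroblasts cultured with fluconazole at 8 µg/mL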
Aminopeptidase N = Aminopeptidase N (Plasmodium falciparum FcB1/Columbia, UniProt O96935); test: malaria alanyl aminopeptidase activity blockers – biochemical, fluorogenic H-Leu-NHMec substrate, 1536-well (AID 1445); parameters: species or system Plasmodium falciparum 3D7, 3D7
[2] = fluconazole-exposed Candida albicans growth modulators – fluorescence, retest, confirmation (AID 2467); type: functional, cell-based
[3] = target: T1, Serine/threonine-protein phosphatase (Candida dubliniensis (strain CD36 / CBS 7987 / NCPF 3949 / NRRLY-17841) (Yeast), UniProt B9W6M3); test: blockers of CaCl2-induced CDRE-lacZ signaling – S. cerevisiae, luminescence, secondary, dose response (AID 2388); type: functional, cell-based;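 note: yeast reporter cells carrying a calcineurin-responsive lacZ construct stimulated with calcium chloride; luminescent beta-galactosidase reporter signal in whole cells rather than isolated phosphatase activity; potency for inhibition where a drop in reporter signal means calcineurin blockade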
T1 sequence (B9W6M3 whole entry): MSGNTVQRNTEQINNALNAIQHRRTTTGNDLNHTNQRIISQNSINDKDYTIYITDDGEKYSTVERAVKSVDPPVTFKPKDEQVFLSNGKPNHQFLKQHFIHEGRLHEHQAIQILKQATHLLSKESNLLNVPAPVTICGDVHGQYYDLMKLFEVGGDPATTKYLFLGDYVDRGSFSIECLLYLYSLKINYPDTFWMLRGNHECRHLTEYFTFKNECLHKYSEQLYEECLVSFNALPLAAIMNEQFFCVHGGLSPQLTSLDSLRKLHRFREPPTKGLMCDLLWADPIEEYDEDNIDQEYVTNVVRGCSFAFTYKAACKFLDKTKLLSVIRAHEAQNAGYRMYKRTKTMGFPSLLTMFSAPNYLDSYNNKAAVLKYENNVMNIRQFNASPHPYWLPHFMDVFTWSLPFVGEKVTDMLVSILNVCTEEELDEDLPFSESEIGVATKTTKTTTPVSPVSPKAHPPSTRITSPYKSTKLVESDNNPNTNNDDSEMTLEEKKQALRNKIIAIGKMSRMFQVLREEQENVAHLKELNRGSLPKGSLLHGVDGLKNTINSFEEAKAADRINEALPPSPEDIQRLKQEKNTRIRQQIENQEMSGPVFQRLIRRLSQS

[4] = target: ATP-dependent molecular chaperone HSP82 (Candida albicans (strain WO-1) (Yeast), UniProt C4YTQ8); test: steroid-induced GRE reporter decrease in yeast – S. cerevisiae, luminescence, Hsp90 inhibitor project, dose response (AID 2400); type: functional, cell-based;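 note: beta-galactosidase luminescence from glucocorticoid response element reporter as proxy for Hsp90 function; inhibitor potency where signal loss means Hsp90 inhibition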
Aspartyl aminopeptidase = Aspartyl aminopeptidase (Plasmodium falciparum 3D7, UniProt Q8I2J3)
Procathepsin L = Procathepsin L (Homo sapiens, UniProt P07711)
Cytochrome P450 2D6 = Cytochrome P450 2D6 (Homo sapiens, UniProt P10635); test: qHTS Assay for Inhibitors and Substrates of Cytochrome P450 2D6. [Related pubchem assays: 410 ]; type: ADME; conditions: read-out: Potency
Cytochrome P450 3A4 = Cytochrome P450 3A4 (Homo sapiens, UniProt P08684); conditions: Potency;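 note: confirmatory qHTS run detecting inhibitors and substrates of CYP3A4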
Cytochrome P450 2C9 = Cytochrome P450 2C9 (Homo sapiens, UniProt P11712); conditions: Potency
[5] = target: Lysosomal acid glucosylceramidase (Homo sapiens, UniProt P04062); test: Dose response cell-based high throughput screening assay to identify enhancers of beta-glucosidase activity. [Related pubchem assays: 784 ]; type: functional
[6] = target: G-protein coupled receptor 35 (Homo sapiens, UniProt Q9HC97); test: inhibition of zaprinast-stimulated GPR35 beta-arrestin translocation – imaging, U2OS, beta-arrestin-GFP, zaprinast agonist, primary screen (AID 2058); type: functional;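 note: antagonist potency meaning inhibition of agonist-induced arrestin redistribution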
[7] = Trypanosoma cruzi growth suppression in host cells – NIH3T3 host cells, beta-gal luminescence, confirmation (AID 2044); type: functional, cell-based;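 note: intracellular parasites grown in NIH/3T3 mouse fibroblasts as host cells; luminescent beta-galactosidase reporter signal from transgenic T. cruzi replicating inside host cells; inhibitors lower the luminescence signal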
[8] = viability of PTEN-deleted HCT116 cells – cell-based, HCT116 PTEN knockout, dose response (AID 1047); type: functional;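 note: HCT116 colon tumor cells with PTEN knocked out; cells exposed to compound for 60 hours before readout; potency for loss of cell viability measured by luminescence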
[9] = NIH3T3 cell viability loss – ATP luminescence, mouse fibroblasts, counter-screen, dose response (AID 2010); type: functional, cell-based;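 note: cells exposed to compound for about 90 hours before reading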
[10] = viability of HCT116 lacking mutant beta-catenin – cell-based, human colon tumor, dose response (AID 1045); type: functional;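 note: HCT116 colon tumor cells with beta catenin knocked out; cells exposed to compound for 60 hours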
[11] = target: T2, Sphingosine 1-phosphate receptor 4 (Homo sapiens, UniProt O95977); test: Fluorescence dose response cell-based high throughput screening assay for antagonists of the Sphingosine 1-Phosphate Receptor 4 (S1P4). [Related pubchem assays: 1524 (Confirmation in triplicates.), 1510 (Primary screen.)]; type: functional
T2 sequence (O95977 whole entry): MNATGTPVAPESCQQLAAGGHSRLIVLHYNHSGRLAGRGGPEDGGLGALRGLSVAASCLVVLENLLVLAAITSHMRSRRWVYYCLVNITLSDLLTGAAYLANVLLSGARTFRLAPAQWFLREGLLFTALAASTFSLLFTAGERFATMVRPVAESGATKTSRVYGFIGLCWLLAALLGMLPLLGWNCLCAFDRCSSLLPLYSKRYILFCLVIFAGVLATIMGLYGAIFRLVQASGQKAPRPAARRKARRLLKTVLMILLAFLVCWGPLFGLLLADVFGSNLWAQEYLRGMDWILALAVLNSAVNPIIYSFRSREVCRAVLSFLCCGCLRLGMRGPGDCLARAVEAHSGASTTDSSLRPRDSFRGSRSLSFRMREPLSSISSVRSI

[12] = target: Sphingosine 1-phosphate receptor 1 (Homo sapiens, UniProt P21453); type: functional;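 note: Tango beta-arrestin reporter U2OS cells stimulated with S1P near its EC80; inhibitor potency meaning antagonism of receptor activation by the natural agonist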
[13] = target: T3, Alkaline phosphatase, tissue-nonspecific isozyme (Homo sapiens, UniProt P05186)
T3 sequence (P05186 whole entry): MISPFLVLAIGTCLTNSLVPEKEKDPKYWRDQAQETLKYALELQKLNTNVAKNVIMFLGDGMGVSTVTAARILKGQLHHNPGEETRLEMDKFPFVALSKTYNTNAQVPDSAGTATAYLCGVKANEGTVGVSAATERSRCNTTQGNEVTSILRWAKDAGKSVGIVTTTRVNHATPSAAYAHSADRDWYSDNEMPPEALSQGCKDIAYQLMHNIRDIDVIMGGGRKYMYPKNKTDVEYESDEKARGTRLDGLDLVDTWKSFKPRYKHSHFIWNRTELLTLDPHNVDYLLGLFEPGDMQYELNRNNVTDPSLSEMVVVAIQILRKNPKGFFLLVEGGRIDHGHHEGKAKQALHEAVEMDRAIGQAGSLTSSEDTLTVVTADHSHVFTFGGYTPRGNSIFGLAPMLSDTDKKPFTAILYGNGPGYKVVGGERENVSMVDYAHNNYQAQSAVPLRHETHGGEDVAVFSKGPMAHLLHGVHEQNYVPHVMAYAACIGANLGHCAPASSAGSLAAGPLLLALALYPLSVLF

[14] = target: Melanin-concentrating hormone receptor 1 (Homo sapiens, UniProt Q99705); test: Fluorescence-based counterscreen for antagonists of the G-protein coupled receptor 7 (GPR7): cell-based high throughput dose response assay to identify antagonists of the melanin-concentrating hormone receptor 1 (MCHR1).; type: functional
Mucolipin-3 = target: T4, Mucolipin-3 (Homo sapiens, UniProt Q8TDD5); test: Dose response cell-based high-throughput screening assay for agonists of the transient receptor potential channel ML3 (TRPML3). [Related pubchem assays: 1526, 1424, 1448 ]; type: functional
T4 sequence (Q8TDD5 whole entry): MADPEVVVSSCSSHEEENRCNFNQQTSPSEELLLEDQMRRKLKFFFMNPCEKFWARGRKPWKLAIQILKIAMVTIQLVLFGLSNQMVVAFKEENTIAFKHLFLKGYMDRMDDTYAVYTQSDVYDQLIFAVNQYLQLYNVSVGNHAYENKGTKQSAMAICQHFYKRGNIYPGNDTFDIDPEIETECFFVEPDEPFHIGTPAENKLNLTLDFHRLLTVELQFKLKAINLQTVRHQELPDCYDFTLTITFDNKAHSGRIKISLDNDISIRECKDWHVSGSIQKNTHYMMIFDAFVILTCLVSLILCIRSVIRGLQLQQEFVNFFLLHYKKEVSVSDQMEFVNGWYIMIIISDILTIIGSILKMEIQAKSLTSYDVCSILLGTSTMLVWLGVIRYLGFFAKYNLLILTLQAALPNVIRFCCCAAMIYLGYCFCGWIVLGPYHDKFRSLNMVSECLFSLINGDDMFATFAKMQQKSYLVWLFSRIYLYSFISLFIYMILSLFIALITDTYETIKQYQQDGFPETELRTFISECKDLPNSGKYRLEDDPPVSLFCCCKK

Ion channel NompC = Ion channel NompC (Danio rerio, UniProt Q7T1G6); test: Fluorescence counterscreen assay for TRPML3 agonists: dose response cell-based high-throughput screening assay to identify agonists of the transient receptor potential channel N1 (TRPN1). [Related pubchem assays: 1526, 1424, 1448 ]; type: functional
[15] = target: Voltage-dependent T-type calcium channel subunit alpha-1H (Homo sapiens, UniProt O95180); type: functional;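 note: channel activity triggered by adding a high calcium stimulation buffer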
[16] = target: Eukaryotic translation initiation factor 4H (Homo sapiens, UniProt Q15056); test: eIF4H binding inhibition – biochemical, uHTS, fluorescence polarization, translation initiation inhibitor project, primary screen (AID 2012)
[17] = target: T5, Mannose-6-phosphate isomerase (Homo sapiens, UniProt P34949); test: MPI inhibition at elevated mannose 6-phosphate – biochemical, fluorescence intensity, high mannose 6-phosphate, primary screen (AID 1220)
T5 sequence (P34949 whole entry): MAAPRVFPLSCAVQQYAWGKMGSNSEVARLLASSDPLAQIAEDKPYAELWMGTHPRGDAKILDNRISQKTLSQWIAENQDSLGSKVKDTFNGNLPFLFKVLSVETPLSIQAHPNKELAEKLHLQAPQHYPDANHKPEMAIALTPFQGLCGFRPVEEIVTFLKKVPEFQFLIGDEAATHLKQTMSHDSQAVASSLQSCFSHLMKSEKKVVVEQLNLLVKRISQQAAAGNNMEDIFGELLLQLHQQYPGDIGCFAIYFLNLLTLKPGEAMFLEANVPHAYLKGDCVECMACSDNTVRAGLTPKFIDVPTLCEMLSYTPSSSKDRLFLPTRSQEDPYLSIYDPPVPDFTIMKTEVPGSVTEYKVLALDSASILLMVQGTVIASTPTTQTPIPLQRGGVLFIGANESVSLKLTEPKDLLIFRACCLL

[18] = target: Polyadenylate-binding protein 1 (Homo sapiens, UniProt P11940); test: blockers of PABP interaction with poly(A) – biochemical, fluorescence polarization, […] (AID 2014)
[19] = A cytotoxicity screen of small molecule inhibitors of the PhoP region in Salmonella typhi identified in the primary screen. [Related pubchem assays: 1850, 1864, 1985 ]; type: functional
Nonstructural protein 1 = Nonstructural protein 1 (Influenza A virus, UniProt Q194T2); type: functional, Influenza A virus (A/California/07/2009(H1N1))
[20] = target: T6, Carboxy-terminal domain RNA polymerase II polypeptide A small phosphatase 1 (Homo sapiens, UniProt Q9GZU7); test: CTDSP1 inhibitors, concentration-response, biochemical, absorbance readout, ultra-high-throughput screen actives (AID 540297); type: functional
T6 sequence (Q9GZU7 whole entry): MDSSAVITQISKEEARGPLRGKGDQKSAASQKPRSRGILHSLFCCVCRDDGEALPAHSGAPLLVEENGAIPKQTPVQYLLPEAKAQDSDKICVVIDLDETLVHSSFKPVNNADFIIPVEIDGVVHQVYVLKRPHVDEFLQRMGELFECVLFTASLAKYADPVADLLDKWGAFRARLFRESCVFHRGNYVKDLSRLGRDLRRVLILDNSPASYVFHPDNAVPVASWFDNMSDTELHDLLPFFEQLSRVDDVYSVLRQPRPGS

Escherichia coli = test: microbe, parasite or virus in culture

Sequence of Polyadenylate-binding protein 1 (P11940 whole entry): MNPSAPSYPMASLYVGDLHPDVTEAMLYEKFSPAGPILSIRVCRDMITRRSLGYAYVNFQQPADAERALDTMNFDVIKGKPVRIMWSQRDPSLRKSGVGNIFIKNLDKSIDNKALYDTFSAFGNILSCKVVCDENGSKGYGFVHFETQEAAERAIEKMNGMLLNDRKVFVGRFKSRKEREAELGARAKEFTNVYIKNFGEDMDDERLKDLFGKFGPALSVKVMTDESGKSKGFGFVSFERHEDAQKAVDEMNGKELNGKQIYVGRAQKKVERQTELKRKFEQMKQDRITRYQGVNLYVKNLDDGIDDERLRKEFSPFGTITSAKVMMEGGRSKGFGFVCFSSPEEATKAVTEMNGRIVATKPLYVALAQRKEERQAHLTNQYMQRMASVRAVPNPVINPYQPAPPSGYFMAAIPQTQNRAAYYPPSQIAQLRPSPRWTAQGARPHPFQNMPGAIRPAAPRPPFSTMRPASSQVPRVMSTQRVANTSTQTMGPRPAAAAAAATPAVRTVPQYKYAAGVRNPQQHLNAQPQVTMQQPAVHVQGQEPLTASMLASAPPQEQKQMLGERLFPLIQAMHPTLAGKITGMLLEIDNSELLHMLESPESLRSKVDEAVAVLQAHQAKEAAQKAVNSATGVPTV
Sequence of Cytochrome P450 2C9 (P11712 whole entry): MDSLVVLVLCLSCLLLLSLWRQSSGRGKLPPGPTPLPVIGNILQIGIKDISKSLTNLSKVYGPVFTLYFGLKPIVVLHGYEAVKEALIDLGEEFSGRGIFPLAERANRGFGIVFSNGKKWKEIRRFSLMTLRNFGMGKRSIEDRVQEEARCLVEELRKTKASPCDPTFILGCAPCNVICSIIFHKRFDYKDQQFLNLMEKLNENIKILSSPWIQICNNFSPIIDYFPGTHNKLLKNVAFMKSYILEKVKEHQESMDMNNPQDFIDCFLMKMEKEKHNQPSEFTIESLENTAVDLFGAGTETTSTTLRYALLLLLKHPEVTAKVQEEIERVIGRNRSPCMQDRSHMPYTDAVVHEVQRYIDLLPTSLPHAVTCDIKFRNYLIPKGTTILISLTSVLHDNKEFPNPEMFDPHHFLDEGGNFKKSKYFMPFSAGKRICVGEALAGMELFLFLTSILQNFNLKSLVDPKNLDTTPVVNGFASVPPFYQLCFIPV
Sequence of Lysosomal acid glucosylceramidase (P04062 whole entry): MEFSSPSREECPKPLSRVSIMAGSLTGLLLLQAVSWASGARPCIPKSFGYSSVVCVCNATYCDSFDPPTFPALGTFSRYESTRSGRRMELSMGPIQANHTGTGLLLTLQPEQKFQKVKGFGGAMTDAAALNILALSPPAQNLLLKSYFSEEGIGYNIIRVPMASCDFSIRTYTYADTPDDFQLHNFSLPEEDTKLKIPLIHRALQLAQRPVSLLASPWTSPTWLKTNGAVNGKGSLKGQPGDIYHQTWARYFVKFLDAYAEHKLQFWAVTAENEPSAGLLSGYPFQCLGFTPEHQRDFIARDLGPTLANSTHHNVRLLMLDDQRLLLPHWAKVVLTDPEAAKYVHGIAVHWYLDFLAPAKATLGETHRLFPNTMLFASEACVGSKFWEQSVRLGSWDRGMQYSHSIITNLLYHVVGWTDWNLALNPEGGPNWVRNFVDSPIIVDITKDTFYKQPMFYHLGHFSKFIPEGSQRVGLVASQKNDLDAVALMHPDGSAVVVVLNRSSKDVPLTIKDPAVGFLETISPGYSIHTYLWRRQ
Sequence of Aspartyl aminopeptidase (Q8I2J3 whole entry): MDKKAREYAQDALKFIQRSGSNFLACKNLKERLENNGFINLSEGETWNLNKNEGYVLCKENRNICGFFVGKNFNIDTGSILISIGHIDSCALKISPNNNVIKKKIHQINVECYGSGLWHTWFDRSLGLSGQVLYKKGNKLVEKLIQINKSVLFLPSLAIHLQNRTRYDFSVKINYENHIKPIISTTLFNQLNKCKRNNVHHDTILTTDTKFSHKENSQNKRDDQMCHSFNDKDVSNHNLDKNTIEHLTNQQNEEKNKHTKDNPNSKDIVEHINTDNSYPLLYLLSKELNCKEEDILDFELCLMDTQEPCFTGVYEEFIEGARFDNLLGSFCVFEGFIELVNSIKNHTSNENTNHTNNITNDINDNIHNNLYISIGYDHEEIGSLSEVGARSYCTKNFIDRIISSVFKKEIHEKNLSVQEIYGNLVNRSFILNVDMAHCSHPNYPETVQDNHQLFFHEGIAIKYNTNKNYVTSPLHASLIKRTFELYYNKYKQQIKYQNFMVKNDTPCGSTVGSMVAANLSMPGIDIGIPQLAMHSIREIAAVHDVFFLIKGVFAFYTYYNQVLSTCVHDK
Sequence of Aminopeptidase N (O96935 whole entry): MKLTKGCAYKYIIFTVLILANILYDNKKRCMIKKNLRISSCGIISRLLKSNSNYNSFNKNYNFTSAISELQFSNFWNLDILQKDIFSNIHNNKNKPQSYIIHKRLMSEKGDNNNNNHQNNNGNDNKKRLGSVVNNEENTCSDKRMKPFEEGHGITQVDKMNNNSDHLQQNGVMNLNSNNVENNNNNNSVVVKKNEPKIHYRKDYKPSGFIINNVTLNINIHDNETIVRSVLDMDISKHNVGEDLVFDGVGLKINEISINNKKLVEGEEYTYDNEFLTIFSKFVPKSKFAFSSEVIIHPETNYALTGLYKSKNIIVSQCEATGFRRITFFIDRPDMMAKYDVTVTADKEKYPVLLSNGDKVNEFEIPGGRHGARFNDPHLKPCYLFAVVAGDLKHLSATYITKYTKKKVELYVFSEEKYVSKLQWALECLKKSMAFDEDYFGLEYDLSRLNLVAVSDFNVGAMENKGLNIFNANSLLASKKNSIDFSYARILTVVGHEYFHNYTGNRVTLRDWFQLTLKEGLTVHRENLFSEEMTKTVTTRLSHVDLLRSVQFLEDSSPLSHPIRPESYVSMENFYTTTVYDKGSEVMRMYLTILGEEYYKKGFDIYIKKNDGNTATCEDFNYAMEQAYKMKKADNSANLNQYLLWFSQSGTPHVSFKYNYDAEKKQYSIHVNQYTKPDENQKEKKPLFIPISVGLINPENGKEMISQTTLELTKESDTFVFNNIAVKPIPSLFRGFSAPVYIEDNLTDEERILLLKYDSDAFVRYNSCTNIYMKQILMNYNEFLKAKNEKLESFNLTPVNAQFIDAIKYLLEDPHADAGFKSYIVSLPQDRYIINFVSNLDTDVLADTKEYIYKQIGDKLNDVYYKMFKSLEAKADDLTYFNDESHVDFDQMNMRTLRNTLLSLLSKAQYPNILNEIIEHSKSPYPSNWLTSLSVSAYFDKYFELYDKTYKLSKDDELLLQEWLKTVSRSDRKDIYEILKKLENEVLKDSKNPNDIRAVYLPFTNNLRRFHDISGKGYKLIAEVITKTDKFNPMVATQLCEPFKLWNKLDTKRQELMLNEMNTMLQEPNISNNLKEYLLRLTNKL
Sequence of Procathepsin L (P07711 whole entry): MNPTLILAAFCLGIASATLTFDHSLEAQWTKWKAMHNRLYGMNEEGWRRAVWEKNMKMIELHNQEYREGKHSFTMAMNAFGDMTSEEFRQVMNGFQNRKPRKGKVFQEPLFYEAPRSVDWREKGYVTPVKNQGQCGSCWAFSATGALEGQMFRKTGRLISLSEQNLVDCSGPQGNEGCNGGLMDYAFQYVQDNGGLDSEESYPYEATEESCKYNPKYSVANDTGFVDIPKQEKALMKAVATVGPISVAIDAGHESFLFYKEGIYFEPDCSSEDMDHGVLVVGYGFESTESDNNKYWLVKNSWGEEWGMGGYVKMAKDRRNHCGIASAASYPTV
Sequence of Cytochrome P450 3A4 (P08684 whole entry): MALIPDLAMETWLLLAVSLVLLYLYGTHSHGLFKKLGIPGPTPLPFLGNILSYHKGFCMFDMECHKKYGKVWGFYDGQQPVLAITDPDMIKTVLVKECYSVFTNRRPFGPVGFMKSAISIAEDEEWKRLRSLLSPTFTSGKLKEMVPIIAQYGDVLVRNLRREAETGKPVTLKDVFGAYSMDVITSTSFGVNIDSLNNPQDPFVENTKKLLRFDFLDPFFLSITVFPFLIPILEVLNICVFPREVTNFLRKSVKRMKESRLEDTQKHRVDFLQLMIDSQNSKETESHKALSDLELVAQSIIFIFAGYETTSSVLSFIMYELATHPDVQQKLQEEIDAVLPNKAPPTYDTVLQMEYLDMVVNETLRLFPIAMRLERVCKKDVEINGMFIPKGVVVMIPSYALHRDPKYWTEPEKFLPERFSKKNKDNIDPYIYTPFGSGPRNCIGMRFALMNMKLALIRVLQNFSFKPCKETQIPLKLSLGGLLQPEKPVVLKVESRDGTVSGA
Sequence of Nonstructural protein 1 (Q194T2 whole entry, the tested form may be a part): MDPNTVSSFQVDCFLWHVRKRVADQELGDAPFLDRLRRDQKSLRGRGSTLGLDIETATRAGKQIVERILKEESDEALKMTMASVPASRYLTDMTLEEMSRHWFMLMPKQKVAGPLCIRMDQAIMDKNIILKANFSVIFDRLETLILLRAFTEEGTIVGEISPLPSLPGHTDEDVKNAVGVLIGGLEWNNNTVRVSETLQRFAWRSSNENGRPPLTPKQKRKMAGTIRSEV
Sequence of G-protein coupled receptor 35 (Q9HC97 whole entry): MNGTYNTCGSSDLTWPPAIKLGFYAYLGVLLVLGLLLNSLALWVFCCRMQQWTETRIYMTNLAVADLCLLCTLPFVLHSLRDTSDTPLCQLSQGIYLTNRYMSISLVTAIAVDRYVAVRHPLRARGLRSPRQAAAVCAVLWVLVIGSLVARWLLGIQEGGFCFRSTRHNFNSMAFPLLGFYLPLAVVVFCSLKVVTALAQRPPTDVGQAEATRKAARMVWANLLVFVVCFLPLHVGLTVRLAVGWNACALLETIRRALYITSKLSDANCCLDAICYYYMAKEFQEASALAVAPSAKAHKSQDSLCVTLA

CCn1c(O)c(N=NC(=O)c2cccs2)c2ccccc21
EC50 [1]: 43.6 µM (active)
IC50 (Aminopeptidase N): 70.2 µM (active)
EC50 [2]: 1.09 µM (active)
EC50 [3]: > 180 µM (inactive)
EC50 [4]: 31.2 µM (active)

O=c1[nH]c(CSc2nnc[nH]2)nc2ccccc12
IC50 (Aspartyl aminopeptidase): 0.833 µM (active)
IC50 (Procathepsin L): > 59.6 µM (not active)

CC1CCC2C(=O)OC(CN3C(=O)c4ccccc4C3=O)CN2C1c1ccc(Br)cc1 (configuration not stated)
AC50 (Cytochrome P450 2D6): 3.16 µM (inconclusive)
AC50 (Cytochrome P450 3A4): 3.98 µM (inconclusive)
AC50 (Cytochrome P450 2C9): 3.16 µM (inconclusive)

COC(=O)CN(n1cnnc1)S(=O)(=O)c1ccc(C)cc1
IC50 (Aspartyl aminopeptidase): 0.351 µM (active)
IC50 (Procathepsin L): > 59.6 µM (not active)

CCCCOc1nc2ccccc2nc1C(C#N)S(=O)(=O)c1ccccc1 (configuration not stated)
EC50 [5]: > 50 µM (not active)

CCOC(=O)OCC1OC(C#Cc2ccc(Br)cc2)C=CC1OC(=O)OCC (configuration not stated)
AC50 (Cytochrome P450 3A4): 3.98 µM (inconclusive)
AC50 (Cytochrome P450 2C9): 2.51 µM (inconclusive)

COc1cc(/C=C(/C)[N+](=O)[O-])ccc1OCc1ccccc1Cl
IC50 [6]: 2.45 µM (active)
EC50 [7]: 2.07 µM (active)
EC50 [8]: 8.96 µM (active)
EC50 [9]: 9.08 µM (active)
EC50 [10]: 8.05 µM (active)
IC50 [11]: 0.727 µM (active)
IC50 [12]: 7.64 µM (active)

CCCCN1CC(=O)C(c2nc3ccccc3[nH]2)=C1N
EC50 [13]: > 100 µM (not active)

COc1ccc(S(=O)(=O)C(C#N)c2nc3ccccc3nc2N2CCCCC2)cc1 (configuration not stated)
EC50 [5]: > 50 µM (not active)

CN1CCN(c2ccccc2NC(=O)Cc2ccc(Cl)cc2)CC1
IC50 [14]: 36 µM (not active)

Cc1ccc(S(=O)(=O)c2c(C)cc(C)nc2Oc2cccc(C(F)(F)F)c2)cc1
EC50 (Mucolipin-3): 5.23 µM (active)
EC50 (Ion channel NompC): > 29.9 µM (not active)
EC50 [15]: 7.06 µM (active)

CCN1CCc2c(C#N)c(NCc3ccccc3)nc(NCCO)c2C1
IC50 [16]: > 100 µM (inactive)
IC50 [17]: > 50 µM (not active)
IC50 [18]: > 100 µM (inactive)

COc1ccc(S(=O)(=O)N2CCCCCC2)cc1N(C)S(=O)(=O)c1ccc(C)cc1
EC50 (Mucolipin-3): 6.7 µM (active)
EC50 (Ion channel NompC): > 29.9 µM (not active)

CCn1c(SCC(=O)N/N=C/C=C\c2ccco2)nc2ccccc21
IC50 [16]: 12.3 µM (active)
IC50 [18]: 68.8 µM (active)

O=C(/C=C(\O)c1ccccc1)C(=O)NNC(=O)c1ccccc1
EC50 [19]: > 50 µM (active)

O=C1Nn2c(nc3c(c2=O)CCC3)/C1=N/Nc1cccc(Cl)c1
IC50 (Aminopeptidase N): 83.9 µM (active)
IC50 (Nonstructural protein 1): > 100 µM (active)
IC50 [20]: 6.15 µM (active)

COCCn1c(N/N=C(C)/C=C/c2ccccc2)nc2c1c(=O)[nH]c(=O)n2C
EC50 [13]: > 100 µM (not active)

CCn1cc(C(=O)O)c(=O)c2cc(F)c(N3CCNCC3)cc21 [NORFLOXACIN]
EC50 [19]: > 50 µM (active)
AC50 (Escherichia coli): 1.33 µM (active)
